Assay results published in publication PMC8878047 (Pharmaceutics, 2022).
In brackets after ≈: the same amount, converted by molar mass.

How the values were obtained:
[1] = rat, in vivo, po
Pseudomonas aeruginosa = experiment: In vitro antibacterial activity (MIC/MBC, doubling dilution); type: cell-based; settings: P. aeruginosa, 37 °C, 24 h
Procedure: (§1) The clinically typical pathogens (Staphylococcus aureus, Escherichia coli, Pseudomonas aeruginosa, Salmonellosis typhoidal and Proteus vulgaris) were obtained from the Department of Microbiology and Immunology of Guangxi Medical University. We cultured the bacterial suspension of five pathogens in bouillon culture-medium at 37 °C, and diluted it into 0.5 McFarland Standard with bioclean normal saline (the volume ratio of each bacterial suspension and bioclean normal saline was 1:1000, and the concentration of bacterial suspension was 1~2 × 10^8 CFU/mL). […] We carried out the assays for MIC and MBC evaluation by doubling the dilution under sterile operation on the clean bench. To be specific, we set the sterile test tubes numbered 1–10 for comparison according to the half-dilution method. We added the broth medium to each test tube to fix the final volume to be 2 mL. […] Then, we filled each tube with 50 μL of inoculated bacteria colony, except for tube no. 9, which was the negative control. The final colony concentration in each test tube was 2 × 10^5 CFU/mL. Tube no. 10 was set as a blank without the tested drug. […] We repeated all tests in triplicate.

Staphylococcus aureus = experiment: as above; type: cell-based; settings: S. aureus, 37 °C, 24 h
Procedure: as §1

Proteus vulgaris = experiment: as above; type: cell-based; settings: P. vulgaris, 37 °C, 24 h
Procedure: as §1

[2] = Water solubility by UV-Vis (Lambert–Beer law); type: physicochemical; settings: thermodynamic from solid, saturated aqueous solution, 30× dilution, room temperature / 35 °C (method)
Excerpt: We diluted this solution into a series of working solutions to measure their UV-Vis spectra.

KM mice = type: in vivo; settings: high-dose group, dead mice, HE staining
Procedure: After the acute toxicity test, the dead mice after oral administration and the surviving mice at the end of the observation period were promptly dissected and pathologically examined. […] We dissected the important organs (heart, liver, spleen, lung, kidney, large intestine, and small intestine) of dead mice and normal mice in the high-dose group of each drug solution. Then, the main organs were fixed in 10% buffered formalin and embedded in paraffin for 1–4 h. They were histopathologically examined under the optical microscope after slicing and staining with hematoxylin-eosin (HE) staining. No fixed parameters were compared between the treatment and control groups.

SMILES	Cl ([1]; male, SD)	Vd ([1]; male, SD)	Tmax [1]	MBC (Pseudomonas aeruginosa)	MIC (Pseudomonas aeruginosa)	MBC (Staphylococcus aureus)	MIC (Staphylococcus aureus)	MBC (Proteus vulgaris)	MIC (Proteus vulgaris)	solubility [2]	histopathological finding in kidney tissue (KM mice)	histopathological finding in lung tissue (KM mice)
CCN1CCN(c2cc3c(cc2F)c(=O)c(C(=O)O)cn3C2CC2)CC1 [EFX, enrofloxacin, reference compound]	0.6167 mL/min/kg	1.05316 L/kg	1 H	0.125 µg/mL (≈ 0.348 µM)	0.125 µg/mL (≈ 0.348 µM)	0.25 µg/mL (≈ 0.696 µM)	0.25 µg/mL (≈ 0.696 µM)	0.125 µg/mL (≈ 0.348 µM)	0.125 µg/mL (≈ 0.348 µM)	204 µg/mL (≈ 568 µM)	–	–
CCN1CCN(c2cc3c(cc2F)c(=O)c(C(=O)[O-])cn3C2CC2)CC1.CCN1CCN(c2cc3c(cc2F)c(=O)c(C(=O)[O-])cn3C2CC2)CC1.O.O.O.O.[Ca+2] [EFX-Ca, [Ca(EFX)2(H2O)4]·H2O]	–	–	–	–	–	–	–	–	–	–	enlargement of the renal capsule	significant inflammatory cell infiltration of the lung tissue
